Measured values reported in patent publication US20100069854A1, “Elastomeric Devices Containing Chlorhexidine/Fatty Acid Salts Made From Fatty Acids of 12 to 18 Carbons” (priority 2008, published 2010).
“Also recorded” adds a separate entry of the source.

Key:
[1] = Rate of release of chlorhexidine/fatty acid salts from coated polyurethane tubes into DI water; assay type: physicochemical; settings: for Cumulative release of the chlorhexidine/fatty acid salts from the coated polyurethane tubes: 1 cm coated tube in DI water, 37° C.
Method: A solution of each respective chlorhexidine/fatty acid salt was prepared and used to infuse a sample of elastomeric material. To perform the test, individual samples, 8 cm pieces of polyurethane tube containing a colorant, were surface dip coated in respective solutions of the chlorhexidine/fatty acid salts. The solutions were prepared as follows: 8.6 g of Tecoflex (Noveon, Cleveland, Ohio) was dissolved in 174 g of Tetrahydrofuran and methanol. 5.88 g of chlorhexidine acetate, chlorhexidine laurate, chlorhexidine myristate, chlorhexidine palmitate and chlorhexidine stearate were individually dissolved into the polymer-solvent mixture. The samples were immersed into the solvent-polymer-salt mixture and then dried at room temperature, evaporating the solvent. A polymeric coating was produced on the surface of the tubes. The amounts of chlorhexidine/fatty acid salt adhered per cm of the tube was measured (Table 2) by exhaustively extracting the salt and measuring UV absorbance at 253 nm relative to controls: For each of the samples, the rate of release of chlorhexidine/fatty acid salts into an aqueous solution was determined. To perform the rate of release test, 1 cm from each of the coated polyurethane tubes, were submerged in DeIonized (DI) water and incubated at 37° C. for a period of 28 days to determine the rate of release of the salts from the respective 1 cm samples of coated polyurethane tubing. The water was collected and replaced with fresh water after approximately 2 hours. The water was again collected and replaced with fresh water after the first day and every seven days thereafter. The amount of chlorhexidine/fatty acid salt in the collected water was measured with an Agilent 8453 UV-Vis Diode Array Detector with a manual setup using a cuvette w/path length of 1 cm. Chlorhexidine absorbance was read at 253 nm and concentration was calculated via a calibration curve developed using standards of 1, 5, 10, 20, 30, 35, and 40 μg/mL chlorhexidine acetate in DI Water. The percentage of chlorhexidine/fatty acid salt released from the sample into an aqueous media (percent release) was calculated according to the following equation: Percent release=(cumulative release at that time period/initial content)*100.

[2] = test system: Candida albicans ATCC 10231; assay: Zone of inhibition assay with impregnated polyurethane foam discs; assay type: cell-based; settings: for Zone of inhibition compared with the other salts (in words): impregnated polyurethane foam, after several daily transfers / over the 9 day assay
Method: To evaluate antimicrobial properties of polyurethane foam samples infused with the various chlorhexidine/fatty acid salts, a zone of inhibition assay was performed. In this assay, 1.4% (w/v) of chlorhexidine acetate, chlorhexidine caprate, chlorhexidine laurate, chlorhexidine myristate, chlorhexidine palmitate and chlorhexidine stearate solutions in methanol were prepared. A supply of 8 mm discs were punched out of a sheet of polyurethane foam (Rynel medical grade polyurethane foam) with biopsy punches (Miltex Kai). Several discs were placed in each of six 50 ml centrifuge tubes. Approximately 5 ml of each of the different methanol/chlorhexidine/fatty acid salt solutions was added to each respective tube. The discs were centrifuged for 5 minutes to remove any air bubbles and soaked for 1 hr to infuse the foam discs with the respective chlorhexidine/fatty acid salt. Infused discs were transferred to clean centrifuge tubes and vacuum dried at 25° C. for 24 hrs to remove any residual solvents. Initial concentrations of salts, impregnated into the punches, were determined by dissolving the impregnated foams and by high pressure liquid chromatography (HPLC) analysis using an Agilent Eclipse XDB-CN 3u 4.6×150 mm column with initial mobile phase=65% DI water/0.2% trifluoroacetic acid (TFA): 35% Acetonitrile/0.2% TFA. Chlorhexidine absorbance was read at 253 nm and concentration was calculated via a chlorhexidine calibration curve. […] To perform the zone of inhibition assay on the impregnated polyurethane foam discs, agar plates were prepared by mixing 11 g Mueller-Hinton cation-adjusted broth and 1.5 g agarose in 500 ml DI water. The agar was autoclaved for 15 minutes at 121° C., 15 psi. 10 ml of the still hot, liquid agar was pipetted onto petri dishes. The challenge organism, Candida albicans ATCC 10231, was cultivated in Trypticase soy broth, standard microbiological growth medium (TSB). Sterile cotton swabs were dipped into the undiluted culture and the plated agar was fully inoculated with swabs. The 8 mm polyurethane foam discs were transferred daily to a freshly inoculated agar for 9 days. The zone of inhibition (ZOI) was measured using calipers. Actual ZOI was measured by subtracting the diameter of the foam (when wet) from the zone measured and dividing by 2. The results are presented in Table 6, with a graphical representation of the ZOI in FIG. 2;

[3] = test system: Pseudomonas aeruginosa ATCC 27853; assay: Basic broth adherence assay on coated polyurethane tubes; assay type: cell-based
Method: The antimicrobial effectiveness of the coated samples was subjected to different durations of DI water extraction by basic broth adherence assay. For each chlorhexidine/fatty acid salt tested, 3 samples of coated tubing were prepared and assayed. To prepare the inoculum, a culture of Pseudomonas aeruginosa ATCC 27853 was used to challenge the coated polyurethane tubes and controls. The negative control used was a length of uncoated polyurethane tube. The challenge microorganism suspension was prepared as follows: approximately three colonies were removed from a secondary working culture plated on Trypticase Soy Agar (TSA) (BD-Falcon) with 5% sheep's blood and added to 10 ml of Trypticase Soy Broth (TSB). The vial was vortexed for approximately 30 seconds and incubated for 4 hours at 37° C. at 100 rpm. Following incubation, the vial was removed and vortexed. The optical density of the organism suspension was read. The inoculum was then diluted in TSB to a concentration of 5×10^4 colony forming units per milliliter (CFU/mL). This concentration was confirmed by the Miles and Misra drop count method.
The basic broth adherence assay was performed in a 96 well micro titer plate. To each well of the micro titer plate containing either a test article or a control, 900 μl of TSB was added. To this, 100 μl of the adjusted inoculum was added (Note: Due to the 1/10 dilution per well, the starting inoculum concentration of each organism was […] for Pseudomonas aeruginosa). The micro titer plates were then sealed via parafilm® around the edges and wrapped in foil to avoid evaporation of liquid and light contact with the samples. The plates were then placed inside a shaker incubator set at 37° C. and 100 rpm for 24 hours. Incubation at 37° C. then continued until the elapse of 7 days, 14 days, and 21 days, respectively, for each of the 3 samples prepared for each chlorhexidine/fatty acid salt.
At the completion of the respective incubation periods, the samples were rinsed, sonicated, the sonicate was plated and adherence was evaluated. More particularly, following incubation, all samples and controls were dip-rinsed twice in phosphate buffered saline (PBS) to remove the surrounding media. After rinsing, test articles were sonicated in micro titer plate wells containing 1 mL of Dey-Engley (DE) neutralizing broth (Difco). The sonication liquid was then serially diluted, and plated onto the surface of DE neutralizing agar. Plates were incubated at 37° C. for 24 to 48 hours and colonies were counted. Recovery counts were recorded as CFU/mL.

[4] = Day 1, daily transfer to fresh agar
[5] = Day 2, daily transfer to fresh agar
[6] = Day 3, daily transfer to fresh agar
[7] = Day 4, daily transfer to fresh agar
[8] = Day 7, daily transfer to fresh agar
[9] = Day 8, daily transfer to fresh agar
[10] = Day 9, daily transfer to fresh agar

For `CCCCCCCCCC(=O)O.CCCCCCCCCC(=O)O.N=C(NCCCCCCNC(=N)NC(=N)Nc1ccc(Cl)cc1)NC(=N)Nc1ccc(Cl)cc1` [Chlorhexidine Caprate, chlorhexidine caprate], the “Percent release of the initial salt concentration from the coated sample” value ([1]; after approximately 7 days (FIG. 1)) was 70%, the “ZOI produced by impregnated polyurethane foam punches against Candida albicans” value (“ZOI produced” below) [2, 4] was 14 mm and the “ZOI produced” value [2, 5] was 18 mm. The “ZOI produced” value [2, 6] was 18 mm, the “ZOI produced” value [2, 7] was 10 mm and the “ZOI produced” value [2, 8] was 7 mm. For the same compound, the “ZOI produced” value [2, 9] was 9 mm, the “ZOI produced” value [2, 10] was 7 mm and the “Zone of inhibition compared with the other salts (in words)” value [2] was “zones of inhibition that were smaller”.

With `CCCCCCCCCCCCCC(=O)O.CCCCCCCCCCCCCC(=O)O.N=C(NCCCCCCNC(=N)NC(=N)Nc1ccc(Cl)cc1)NC(=N)Nc1ccc(Cl)cc1` [Chlorhexidine Myristate, chlorhexidine dimyristate] the “Log10 reduction of adhered Pseudomonas aeruginosa onto the surface of coated polyurethane tubes” value (from here on “Log10 reduction”) ([3]; 7 days) was 7, the “Log10 reduction” value ([3]; 21 days) was 7 and the “Cumulative release of the chlorhexidine/fatty acid salts from the coated polyurethane tubes” value ([1]; Day 1) was 40 g. The “Cumulative release of the chlorhexidine/fatty acid salts from the coated polyurethane tubes” value ([1]; Day 7) was 98 g, the “Cumulative release of the chlorhexidine/fatty acid salts from the coated polyurethane tubes” value ([1]; Day 14) was 133 g and the “Cumulative release of the chlorhexidine/fatty acid salts from the coated polyurethane tubes” value ([1]; Day 21) was 147 g. For the same compound, the “Cumulative release of the chlorhexidine/fatty acid salts from the coated polyurethane tubes” value ([1]; Day 28) was 151 g, the “Release from the coated sample over the test (in words)” value ([1]; FIG. 1, 28 days in DI water) was “continually released at an appreciable rate throughout the duration of the test” and the “Amount released from the coated sample over the 7 day period” value ([1]; from 21 to 28 days) was 4 µg. The “ZOI produced” value [2, 4] was 27 mm, the “ZOI produced” value [2, 5] was 34 mm and the “ZOI produced” value [2, 6] was 32 mm. The “ZOI produced” value [2, 7] was 18 mm, the “ZOI produced” value [2, 8] was 16 mm and the “ZOI produced” value [2, 9] was 16 mm. For the same compound, the “ZOI produced” value [2, 10] was 18 mm.

In the case of `CCCCCCCCCCCCCCCCCC(=O)O.CCCCCCCCCCCCCCCCCC(=O)O.N=C(NCCCCCCNC(=N)NC(=N)Nc1ccc(Cl)cc1)NC(=N)Nc1ccc(Cl)cc1` [Chlorhexidine Stearate, chlorhexidine distearate], the “Log10 reduction” value ([3]; 7 days) is reported as 0, the “Log10 reduction” value ([3]; 14 days) is reported as 0 and the “Log10 reduction” value ([3]; 21 days) is reported as 0. For the same compound, the “Inhibition of adherence / antimicrobial effect against Pseudomonas aeruginosa (in words)” value ([3]; coated polyurethane tubes compared to uncoated control) was “did not provide an antimicrobial effect beyond the first day; also recorded: did not inhibit adherence of the challenge organism”, the “Cumulative release of the chlorhexidine/fatty acid salts from the coated polyurethane tubes” value ([1]; Day 1) was 30 g and the “Cumulative release of the chlorhexidine/fatty acid salts from the coated polyurethane tubes” value ([1]; Day 7) was 76 g. For the same compound, the “Cumulative release of the chlorhexidine/fatty acid salts from the coated polyurethane tubes” value ([1]; Day 14) was 87 g, the “Cumulative release of the chlorhexidine/fatty acid salts from the coated polyurethane tubes” value ([1]; Day 21) was 95 g and the “Cumulative release of the chlorhexidine/fatty acid salts from the coated polyurethane tubes” value ([1]; Day 28) was 99 g. The “Percent release of the initial salt concentration from the coated sample” value ([1]; after 28 days (FIG. 1)) was “approximately 40%”, the “ZOI produced” value [2, 4] was 11 mm and the “ZOI produced” value [2, 5] was 17 mm. For the same compound, the “ZOI produced” value [2, 6] was 16 mm, the “ZOI produced” value [2, 7] was 13 mm and the “ZOI produced” value [2, 8] was 14 mm. The “ZOI produced” value [2, 9] was 8 mm, the “ZOI produced” value [2, 10] was 8 mm and the “Zone of inhibition compared with the other salts (in words)” value [2] was “zones of inhibition that were smaller”.
